Test results taken from the NIST ThermoML archive (doi:10.1016/j.jct.2017.12.017).
Values joined by “and” are separate entries in the source; they are usually repeats but may differ in a detail not shown here. Identical values can stand only once. Numbers after ± are expanded uncertainties.

Assay: mn = molality of the nth substance listed, in mol/kg
Settings: 100 kPa, Liquid; for speed of sound: Frequency=3 MHz, Single path-length method; for mass density: Vibrating tube method

Nc1ccc(S(=O)(=O)Nc2nccs2)cc1 [N-(2-thiazolyl)sulfanilamide] + O
speed of sound (288.15 K, m1 = 0.001): 1466.6 ± 1.8 m/s
speed of sound (288.15 K, m1 = 0.005): 1467.2 ± 1.8 m/s
speed of sound (288.15 K, m1 = 0.01): 1468.5 ± 1.9 m/s
mass density (288.15 K, m1 = 0.001): 999.21 ± 0.49 kg/m3
mass density (288.15 K, m1 = 0.005): 999.71 ± 0.49 kg/m3
mass density (288.15 K, m1 = 0.01): 1000.27 ± 0.49 kg/m3 and 1000.33 ± 0.49 kg/m3
speed of sound (293.15 K, m1 = 0.001): 1482.9 ± 1.9 m/s
speed of sound (293.15 K, m1 = 0.005): 1483.5 ± 1.9 m/s
speed of sound (293.15 K, m1 = 0.01): 1484.5 ± 1.9 m/s
mass density (293.15 K, m1 = 0.001): 998.28 ± 0.49 kg/m3
mass density (293.15 K, m1 = 0.005): 998.79 ± 0.49 kg/m3
mass density (293.15 K, m1 = 0.01): 999.36 ± 0.5 kg/m3 and 999.41 ± 0.49 kg/m3
speed of sound (298.15 K, m1 = 0.001): 1497.1 ± 1.9 m/s
speed of sound (298.15 K, m1 = 0.005): 1497.7 ± 1.9 m/s
speed of sound (298.15 K, m1 = 0.01): 1498.7 ± 1.9 m/s
mass density (298.15 K, m1 = 0.001): 997.13 ± 0.49 kg/m3
mass density (298.15 K, m1 = 0.005): 997.61 ± 0.49 kg/m3
mass density (298.15 K, m1 = 0.01): 998.19 ± 0.5 kg/m3 and 998.23 ± 0.49 kg/m3
speed of sound (303.15 K, m1 = 0.001): 1509.6 ± 1.9 m/s
speed of sound (303.15 K, m1 = 0.005): 1510 ± 1.9 m/s
speed of sound (303.15 K, m1 = 0.01): 1510.7 ± 1.9 m/s
mass density (303.15 K, m1 = 0.001): 995.71 ± 0.49 kg/m3
mass density (303.15 K, m1 = 0.005): 996.18 ± 0.49 kg/m3
mass density (303.15 K, m1 = 0.01): 996.81 ± 0.49 kg/m3 and 996.77 ± 0.49 kg/m3
speed of sound (308.15 K, m1 = 0.001): 1520.2 ± 1.9 m/s
speed of sound (308.15 K, m1 = 0.005): 1520.6 ± 1.9 m/s
speed of sound (308.15 K, m1 = 0.01): 1521.7 ± 1.9 m/s
mass density (308.15 K, m1 = 0.001): 994.08 ± 0.49 kg/m3
mass density (308.15 K, m1 = 0.005): 994.54 ± 0.49 kg/m3
mass density (308.15 K, m1 = 0.01): 995.18 ± 0.49 kg/m3 and 995.14 ± 0.49 kg/m3
